Legend:
neutrophils [1] = experiment: Neutrophil apoptosis, agarose gel DNA laddering; assay type: cell-based, human
From the text: The inflammation associated with many forms of arthritis is thought to arise from the presence of large numbers of immune cells, such as neutrophils, in the synovial joints of humans. The extended inflammation associated with crystal induced arthritis arises from the interaction of neutrophils with crystals in the synovial joint. One reason the extended duration of the inflammation in this disease may be due to the inhibition of neutrophil apoptosis by crystals. This inhibition may result in the neutrophils remaining in the joint for extended periods. Compounds that overcome this crystal induced suppression of neutrophil apoptosis therefore allow the more rapid clearance of these cells from the joint with the appropriate abatement of inflammation. The process of apoptosis involves the endonuclease driven cleavage of DNA into fragments which may be visualized as a ladder of bands in an agarose gel electrophoresis experiment. Other assays that may be used include caspase 3 quantitation or measurements of cytoplasmic DNA concentration. […] Agents that inhibit caspase activation levels or reduce cytoplasmic DNA are pro-survival (potentially inflammatory) and agents that promote are pro-apoptotic and anti-inflammatory. The use of these methods and their role in neutrophil affected inflammation is described in detail in Tudan et al. J Rheumatol. 27 p 2463-72. 2000. […]

[2] = Perivascular injection of polymeric paste at the rat carotid artery; assay type: in vivo, Wistar rats; conditions: 1% loading in 40% Triblock / 60% MePEG350 paste, 0.1 to 0.2 ml
From the text: Wistar rats weighing 400 g to 500 g were anesthetized with halothane. A vertical incision was made over the trachea and the left external carotid artery was exposed. Connective tissue around the left common carotid artery was left untouched. Two ligatures were placed around the external carotid artery and an arteriotomy was made between them. A 2 French Fogarty balloon was introduced into the external carotid artery and pushed into the left common carotid artery and the balloon was inflated with saline. The balloon was passed up and down the entire length of the carotid artery three times to stretch the vessel and denude the endothelium. The balloon was removed and the ligatures tied off on the external carotid artery. Camptothecin (1% loading) in a polymeric paste (40% Triblock (Angiotech pharmaceuticals) and 60% Methoxypolyethylene glycol (MePEG350)) or the carrier paste alone was injected through a 24 G angiocatheter between a distal segment of the common carotid artery and the surrounding connective tissue. Typically, 0.1 to 0.2 ml of paste was applied around the artery in 4 injections in order to cover the whole circumference of the vessel on a length of approximately 1 cm. The wound was then closed and the animals recovered.

neutrophils [3] = experiment: Neutrophil superoxide anion generation (cytochrome c reduction); assay type: cell-based, human; conditions: CPPD crystals or fMLP
Description: Superoxide anion concentrations were measured using the superoxide dismutase inhibitable reduction of cytochrome c assay. Twenty five mg of crystals or fMLP (final concentration 1 uM with cytochalasin B at 0.5 uM) were placed in 1.5 mL capped Eppendorf tubes and warmed to 37° C. To the tubes were added 0.5 mL of cells at 37° C. and ferricytochrome c (horse heart, type 3) (final concentration 1.2 mg/mL) and the cells were activated by shaking the capped tubes. At appropriate times, tubes were centrifuged at 10,000×g for 10 seconds and the supernatant collected for spectrophotometric assay at 550 nm. Control tubes were set up under the same conditions with the inclusion of superoxide dismutase at 600 units per mL. Plumbagin inhibited the generation of superoxide anions from neutrophils activated by both CPPD crystals or fMLP as shown in FIG. 3.

neutrophils [4] = experiment: Neutrophil degranulation (myeloperoxidase release); assay type: cell-based, human; conditions: CPPD crystals and fMLP
Description: Eppendorf tubes containing either 25 mg of CPPD or 1 uM fMLP (with 0.5 uM cytochalasin B) were maintained at 37° C. To the tubes were added 0.5 mL of cells at 37° C. followed by shaking to initiate the reactions. At appropriate times, tubes were centrifuged at 10,000× g for 10 s and 0.4 mL of supernatant was stored at −20° C. for later assay. Myeloperoxidase (MPO) activity was measured by the increase in absorbance at 450 nm that accompanies the oxidation of o-dianisidine. Dianisidine (7.8 mg) was dissolved in 100 mL of 0.1 M citrate buffer, pH 5.5 and to a 1 mL cuvette were added 0.89 mL of the dianisidine solution, followed by […], […] and […]. MPO activity was determined from the change in absorbance (450 nm) per minute, (ΔA450), using the following relationship: Dianisidine oxidation (nmol/min)=50 ΔA450

CC[C@@]1(O)C(=O)OCc2c1cc1n(c2=O)Cc2cc3ccccc3nc2-1 [camptothecin]
apoptosis in neutrophils first incubated with CPPD crystals (neutrophils [1]; CPPD crystals 1 hour, then drug 0.1 uM 4 hours): extensive apoptosis
DNA laddering (apoptosis) in neutrophils (neutrophils [1]; drug alone, 0.1 uM, 4 hours): extensive DNA laddering
adverse effects of perivascular paste injection [2]: no adverse effects noted in any animal

CC1=CC(=O)c2c(O)cccc2C1=O [plumbagin]
generation of superoxide anions from activated neutrophils (neutrophils [3]): inhibited
neutrophil degranulation (myeloperoxidase release) (neutrophils [4]): inhibited
